From US20160044917A1, “LOW ENVIRONMENTAL IMPACT PESTICIDE MADE FROM "GRAS" INGREDIENTS FOR USE AGAINST COQUI FROGS AND OTHER SPECIES” (priority 2015, published 2016)
Read-outs that look alike come from different tables or passages of the source.

Experiments:
frogs = assay: Frog killing time with different concentrations; format: in vivo; conditions: concentrations from about 5% to about 10%
Protocol: Additionally, this formulation killed 10 out of 10 frogs within about 15 minutes. More over, concentrations using proprionic acid ranging from about 5% to about 10% were lethal to the frogs in the test group.

common plants = conditions: citric acid 25%, three days after treatment, cited from earlier work
human skin = assay: Contact of acid solution with human skin or hand; format: in vivo; conditions: solution with a pH of less than 0.5
Protocol: As discussed above, AGIIS has relatively less dehydrating properties (such as charring sucrose) as compared to the saturated solution of CaSO4 in the same concentration of H2SO4. […] AGIIS has low volatility at room temperature and pressure.
In view of the need to find new phytogenic friendly alternatives for controlling the spread of Coqui frogs, a commercially available food sanitation product (i.e. Acidic Calcium Sulfate (“ACS”) was evaluated for inclusion in the current inventory of chemicals that can be applied as sprays. ACS and functional equivalents thereof are made from ingredients that are generally regarded as safe (“GRAS”), and is approved for use in food by the FDA and USDA. Although not wanting to be bound by theory, the efficacy of this product stems from its very unique characteristic of being able to donate a very high activity of hydrogen ions (low pH), while at the same time, having very low oxidative effects on plants and human skin. For example, a five (5) normal concentration of ACS having a pH of approximately zero may be held in the human hand without harm to the person holding the acid. In contrast, when very small amounts are applied to the skin of Coqui frogs it is quickly absorbed and respiration is immediately impaired with lethal results. […]

## CCC(=O)O [propionic acid]
frogs
  lethality to the frogs in the test group: lethal

## O=C(O)CC(O)(CC(=O)O)C(=O)O [citric acid]
Common plants; bromeliad
  phytotoxicity rating: moderate
Common plants; calathea
  phytotoxicity rating: severe
Common plants; dendrobium orchid
  phytotoxicity rating: moderate
Common plants; eggplants
  phytotoxicity rating: severe
Common plants; guava plant
  phytotoxicity rating: moderate
Common plants; leatherleaf fern
  phytotoxicity rating: moderate
Common plants; passion fruit
  phytotoxicity rating: slight
Common plants; payaya
  phytotoxicity rating: slight
Common plants; streptocarpus
  phytotoxicity rating: severe

## O=S(=O)(O)O [sulfuric acid]
Human skin
  effect on hand put into the solution: an irritation would occur
